Measurements as given in patent US20210009557A1, “ACYCLIC CXCR4 INHIBITORS AND USES THEREOF” (X4 Pharmaceuticals, Inc., priority 2017, published 2021).
pIC50: −log10 of the molar value.

Assays:
[1] = molecular target: T1, CXCR-4 transfected U87 cell line (U87.CXCR4) (Homo sapiens, UniProt P61073); experiment: Intracellular CXCL-12-induced calcium mobilization assay (FLIPR); format: cell-based; details: U87.CXCR4 cells; CXCL-12 25-50 ng/mL; compounds added 15 minutes before; read-out: IC50 CXCL-12 Ca2+ flux U87.CXCR4+
T1 construct: expressed in transfected cells; host or cells: U87 cell line (U87.CXCR4)
Experimental: Intracellular calcium mobilization induced by chemokines orchemokine-derived peptides were evaluated using a calcium responsive fluorescent probe and a FLIPR system. The CXCR-4 transfected U87 cell line (U87.CXCR4) cells were seeded in gelatine-coated black-wall 96-well plates at 20,000 cells per well and incubated for 12 hours. Cells were then loaded with the fluorescent calcium probe Fluo-2 acetoxymethyl at 4 μM final concentration in assay buffer (Hanks' balanced salt solution with 20 mM HEPES buffer and 0.2% bovine serum albumin, pH 7.4) for 45 min at 37′C. The intracellular calcium mobilization induced by the CXCL-12 (25-50 ng/mL) was then measured at 37° C. by monitoring the fluorescence as a function of time in all the wells simultaneously using a fluorometric imaging plate reader (FLIPR Tetra, Molecular Devices).

[2] = molecular target: T2, Jurkat cells expressing CXCR4 (Homo sapiens, UniProt P61073); experiment: Chemokine (CXCL12-AF647) binding inhibition assay; details: CXCL12-AF647 25 ng/mL, read-out: IC50 CXCL-12 binding Jurkat
T2 construct: Jurkat cells expressing CXCR4; endogenous in cells; host or cells: Jurkat cells
Experimental: Jurkat cells expressing CXCR4 were washed once with assay buffer (Hanks' balanced salt solution with 20 mM HEPES buffer and 0.2% bovine serum albumin, pH 7.4) and then incubated for 15 min at room temperature with the test compounds diluted in assay buffer at dose-dependent concentrations. Subsequently, CXCL12-AF647 (25 ng/mL) was added to the compound-incubated cells. The cells were incubated for 30 min at room temperature. Thereafter, the cells were washed twice in assay buffer, fixed in 1% paraformaldehyde in PBS, and analyzed on the FL4 channel of a FACSCalibur flow cytometer equipped with a 635-nm red diode laser (Becton Dickinson, San Jose, Calif., USA).
The percentages of inhibition of CXCL12-AF647 binding were calculated according to the formula: [1−((MFI−MFINC)/(MFIPC−MFINC))]×100 where MFI is the mean fluorescence intensity of the cells incubated with CXCL12-AF647 in the presence of the inhibitor, MFINC is the mean fluorescence intensity measured in the negative control (i.e., autofluorescence of unlabeled cells), and MFIPC is the mean fluorescence intensity of the positive control (i.e., cells exposed to CXCL12-AF647 alone).

in vitro = details: human, Caco-2, pH 7.4
Experimental: The goal of this assay was to evaluate the intestinal absorption potential of drug candidates using Caco-2 cell lines.
Experimental Procedure • 1. Pre-warm Pre-warm HBSS Buffer in 37° C. water bath • 2. Sonicate Take compounds from −20° C., sonicate for a few minutes (no less than 1 minute) • 3. Solution preparation
For A-to-B Direction: • HBSS buffer with 0.3% DMSO and 5 μM LY: add 150 μL DMSO and 50 μL LY (5 mM) into 50 ml HBSS buffer (pH 7.4). • HBSS buffer with 0.1% DMSO and 5 μM LY: add 50 μL DMSO and 50 μL LY (5 mM) into 50 mL HBSS buffer (pH 7.4).
For B-to-A Direction: • HBSS buffer with 0.3% DMSO: add 150 μL DMSO into 50 ml HBSS buffer (pH 7.4). HBSS buffer with 0.1% DMSO: add 50 μL DMSO into 50 ml HBSS buffer (pH 7.4).
For A-to-B Direction: • Prepare HBSS buffer with 0.4% DMSO: add 200 μL DMSO into 50 ml HBSS buffer (pH 7.4).
For B-to-A Direction: • Prepare HBSS buffer with 0.4% DMSO and 5 μM LY: add 200 μL DMSO and 50 μL LY (5 mM) into 50 ml HBSS buffer (pH 7.4).
• 4. Measure TEER Take cell culture plate out of incubator, wash the cell monolayers with HBSS buffer, and then measure TEER values at Rm temperature. • 5. Centrifuge Centrifuge the compound solution (from step 3) at 4000 rpm for 5 min before loading to donor chambers. • 6. Dosing Add solution based on the volumes listed in the following table (make sure to take extra 100 μL of donor sample for T0 as Backup).
• 7. Apical LYTO samples To determine LY concentration in the apical chamber, take 100 μL sample from apical chambers into an opaque plate for LYTO. • 8. Pre-warm Pre-warm apical and basolateral plates at 37° C. for about 5 min, then begin transport by placing the apical plate onto basolateral plate. • 9. Incubation Keep the plates in incubator at 37° C. for 90 min. • 10.
• Prepare 1× solution: • 3 μL (20×)+57 μL of 0.4% DMSO HBSS+60 μL ACN with IS (Osalmid or Imipramine)—120 μL (1×) • 11. Transport termination Separate the apical plate from the basolateral plate after 90-min incubation. • 12. Measure LY Take 100 μL samples from basolateral plate to an opaque plate as LYT90. • 13. Measure LY concentrations for LYTO and LYT90 by Fluorometer (at excitation of 485 nm/emission of 535 nm). • 14.
Drug permeability: Papp=(VA/(Area×time))×([drug]accepter/(([drug]initial, donor)×Dilution Factor) • Where VA is the volume in the acceptor well, area is the surface area of the membrane and time is the total transport time in seconds.
For Millicell-24 Cell Culture Plates: surface area of the membrane=0.7 cm^2, VA=0.8 mL (A-to-B) or 0.4 mL (B-to-A)

T2 sequence (P61073 whole entry): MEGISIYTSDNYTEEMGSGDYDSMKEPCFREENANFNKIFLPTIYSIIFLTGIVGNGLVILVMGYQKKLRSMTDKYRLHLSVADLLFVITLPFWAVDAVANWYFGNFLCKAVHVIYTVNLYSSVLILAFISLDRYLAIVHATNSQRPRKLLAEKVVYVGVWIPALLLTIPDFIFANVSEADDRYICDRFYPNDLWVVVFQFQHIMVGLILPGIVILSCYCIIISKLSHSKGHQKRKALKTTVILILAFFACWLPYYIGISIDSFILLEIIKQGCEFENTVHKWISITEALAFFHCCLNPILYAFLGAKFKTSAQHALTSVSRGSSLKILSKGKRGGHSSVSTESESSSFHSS
T1 sequence (P61073 whole entry): as above

SMILES	pIC50 [1]	pIC50 [2]	Papp A→B at 90 min, 10 μM (in vitro) [×10⁻⁶ cm/s]	Papp B→A at 90 min, 10 μM (in vitro) [×10⁻⁶ cm/s]	efflux ratio at 90 min, 10 μM (in vitro)
Cc1cccnc1CN(CCC(N)=O)Cc1ncccc1C [Compound I-14, 3-(Bis((3-methylpyridin-2-yl)methyl)amino)propanamide]	≤ 6.00	6.00 to 7.00	> 10	> 10	0.1 to 10
OCCCN(Cc1nc2ccccc2[nH]1)[C@H]1CCCc2cccnc21 [Compound I-19]	6.00 to 7.00	7.00 to 11.00	> 10	> 10	0.1 to 10
Cn1c(CN(CCC(N)=O)[C@H]2CCCc3cccnc32)nc2ccccc21 [Compound I-22]	6.00 to 7.00	7.00 to 11.00	5 to 10	> 10	10 to 30
Cn1c(CN(CCc2c[nH]cn2)[C@H]2CCCc3cccnc32)nc2ccccc21 [Compound I-25]	7.00 to 11.00	7.00 to 11.00	< 5	> 10	10 to 30
Cc1cccnc1CN(CCc1c[nH]cn1)[C@H]1CCCc2cccnc21 [Compound I-26]	≤ 6.00	7.00 to 11.00	< 5	> 10	10 to 30
COc1ccc(CCN(Cc2ncccc2C)Cc2ncccc2C)nc1 [Compound I-32]	≤ 6.00	7.00 to 11.00	> 10	> 10	0.1 to 10
COc1ccnc(CCN(Cc2ncccc2C)Cc2ncccc2C)c1 [Compound I-33]	≤ 6.00	7.00 to 11.00	> 10	> 10	0.1 to 10
Cc1cccnc1CN(CCc1cnc[nH]1)Cc1ncccc1C(C)C [Compound I-34]	6.00 to 7.00	7.00 to 11.00	5 to 10	> 10	0.1 to 10
Cc1cccnc1CN(CCc1cnc[nH]1)Cc1nccc2ccccc12 [Compound I-36]	7.00 to 11.00	7.00 to 11.00	< 5	> 10	10 to 30
Clc1cccnc1CN(CCc1cnc[nH]1)Cc1nccc2ccccc12 [Compound I-37]	7.00 to 11.00	7.00 to 11.00	5 to 10	> 10	0.1 to 10
CC(C)c1cccnc1CN(CCc1cnc[nH]1)Cc1ncccc1C(C)C [Compound I-38]	≤ 6.00	6.00 to 7.00	5 to 10	> 10	0.1 to 10

The next lines start with the values.

pIC50 [1]	pIC50 [2]	Papp A→B at 90 min, 10 μM (in vitro) [×10⁻⁶ cm/s]	Papp B→A at 90 min, 10 μM (in vitro) [×10⁻⁶ cm/s]	efflux ratio at 90 min, 10 μM (in vitro)	SMILES
≤ 6.00	6.00 to 7.00	< 5	> 10	> 30	CC(c1ccccn1)N(CCC(N)=O)Cc1nc2ccccc2[nH]1 (stereo not drawn) [Compound I-12, 3-(((1H-benzo[d]imidazol-2-yl)methyl)(1-(pyridin-2-yl)ethyl)amino)propanamide]
≤ 6.00	7.00 to 11.00	> 10	> 10	0.1 to 10	Cc1cccnc1CN(CCC(N)=O)C(C)c1ccccn1 (stereo not drawn) [Compound I-13]
≤ 6.00	6.00 to 7.00	> 10	> 10	0.1 to 10	Cc1cccnc1CN(CCC(N)=O)Cc1ncccc1Cl [Compound I-15]
≤ 6.00	6.00 to 7.00	> 10	> 10	0.1 to 10	c1cnc2c(c1)CCC[C@@H]2N(CCC1CCCCO1)Cc1nc2ccccc2[nH]1 (stereo partly drawn) [Compound I-16]
7.00 to 11.00	7.00 to 11.00	> 10	> 10	0.1 to 10	c1cnc2c(c1)CCC[C@@H]2N(CCc1cscn1)Cc1nc2ccccc2[nH]1 [Compound I-20]
6.00 to 7.00	7.00 to 11.00	< 5	> 10	> 30	NC(=O)CCN(Cc1nc2ccccc2[nH]1)[C@H]1CCCc2cccnc21 [Compound I-21, (S)-3-(((1H-benzo[d]imidazol-2-yl)methyl)(5,6,7,8-tetrahydroquinolin-8-yl)amino)propanamide]
≤ 6.00	7.00 to 11.00	5 to 10	> 10	10 to 30	Cc1cccnc1CN(CCC(N)=O)[C@H]1CCCc2cccnc21 [Compound I-23]
≤ 6.00	7.00 to 11.00	> 10	> 10	0.1 to 10	NC(=O)CCN(Cc1ncccc1Cl)[C@H]1CCCc2cccnc21 [Compound I-24]
≤ 6.00	7.00 to 11.00	5 to 10	> 10	0.1 to 10	Clc1cccnc1CN(CCc1c[nH]cn1)[C@H]1CCCc2cccnc21 [Compound I-27, (S)—N-(2-(1H-imidazol-4-yl)ethyl)-N-((3-chloropyridin-2-yl)methyl)-5,6,7,8-tetrahydroquinolin-8-amine]
6.00 to 7.00	7.00 to 11.00	> 10	> 10	0.1 to 10	Clc1cccnc1CN(CCc1cnc[nH]1)Cc1ncccc1Cl [Compound I-28]
7.00 to 11.00	7.00 to 11.00	> 10	> 10	0.1 to 10	COc1cccc(CCN(Cc2ncccc2C)Cc2ncccc2C)n1 [Compound I-31, 2-(6-Methoxypyridin-2-yl)-N,N-bis((3-methylpyridin-2-yl)methyl)ethan-1-amine]
6.00 to 7.00	7.00 to 11.00	> 10	> 10	0.1 to 10	CC(C)c1cccnc1CN(CCc1cnc[nH]1)Cc1ncccc1Cl [Compound I-35]
≤ 6.00	7.00 to 11.00	> 10	> 10	0.1 to 10	Clc1cccnc1CN(CCc1cnc[nH]1)Cc1ncccc1-c1ccccc1 [Compound I-39]
